What was measured:
UGCG = biological target: T1, UGCG (Homo sapiens, UniProt Q16739); assay: Effect of D-PDMP on IHC localization of glycosyltransferases in human CRC cells (UGCG); assay type: cell-based; details: HCT-116, 10p M D-PDMP, 24 h, vs control
T1 construct: endogenous in cells; host or cells: HCT-116
T1 sequence (Q16739 1-394): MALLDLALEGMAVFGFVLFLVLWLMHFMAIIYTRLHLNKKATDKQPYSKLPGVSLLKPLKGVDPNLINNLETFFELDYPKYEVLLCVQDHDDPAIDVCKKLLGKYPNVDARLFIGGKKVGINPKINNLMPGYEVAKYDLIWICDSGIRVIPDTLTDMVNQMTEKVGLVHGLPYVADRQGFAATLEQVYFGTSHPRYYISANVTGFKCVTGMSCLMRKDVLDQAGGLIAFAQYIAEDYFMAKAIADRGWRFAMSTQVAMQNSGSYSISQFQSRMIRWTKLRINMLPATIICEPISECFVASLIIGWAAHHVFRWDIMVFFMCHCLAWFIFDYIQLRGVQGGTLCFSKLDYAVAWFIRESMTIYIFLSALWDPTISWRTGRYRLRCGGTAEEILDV
Protocol: (§1) HCT-116 cells were seeded (10^4) onto sterilized glass coverslips, which were then placed in 6-well sterile plastic trays and grown for 24 h in complete media. Next, the media was replaced with 2 mL of 2% serum-containing media, plus […] D-PDMP. After incubation for 24 and 96 h, the media was removed, and cells were fixed with ethanol, washed, incubated with antibody against β-1,4-GalT-V or UGCG, and photographed.

renal cancer = details: mouse, in vivo; cited from earlier work
β-1,4-GalT-V = biological target: T2, β-1,4-GalT-V (Homo sapiens, UniProt O43286); assay: Effect of D-PDMP on IHC localization of glycosyltransferases in human CRC cells (β-1,4-GalT-V); assay type: cell-based; details: HCT-116, D-PDMP, 24 and 96 h, vs controls
T2 construct: endogenous in cells; host or cells: HCT-116
T2 sequence (O43286 1-388): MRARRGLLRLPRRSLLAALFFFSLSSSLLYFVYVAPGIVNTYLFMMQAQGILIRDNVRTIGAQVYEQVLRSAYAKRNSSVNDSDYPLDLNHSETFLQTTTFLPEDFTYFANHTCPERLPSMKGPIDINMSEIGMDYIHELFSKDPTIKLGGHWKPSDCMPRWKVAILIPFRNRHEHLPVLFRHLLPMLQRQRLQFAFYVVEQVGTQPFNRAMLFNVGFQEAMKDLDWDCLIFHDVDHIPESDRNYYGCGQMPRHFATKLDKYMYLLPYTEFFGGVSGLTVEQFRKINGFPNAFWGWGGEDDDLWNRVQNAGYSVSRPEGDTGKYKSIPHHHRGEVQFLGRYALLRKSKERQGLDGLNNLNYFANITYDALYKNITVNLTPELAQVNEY
Protocol: as §1

[1] = tested on: human colorectal cancer cells (HCT-116); assay: [89Zr] GalT-V antibody binding and internalization (gamma counter); assay type: cell-based; details: HCT-116 pre-incubated with D-PDMP 20 uM
Protocol: Cell cultures were incubated with increasing concentrations of [^89Zr] GalT-V antibody, washed and radioactivity was measured in an automated gamma counter (1282 Compu-gamma CS, Pharmacia/LKB Nuclear, Inc.).
Cell cultures were incubated with increasing concentrations of [^89Zr] GalT-V antibody, washed and radioactivity was measured in a gamma counter. […] GalT-V antibody binding in human coronary arterial endothelial cells (HCAEC) and human colorectal cancer cells (HCT-116) after 2-hour incubation at 37° C.
Cells were pre-incubated with and without an inhibitor of GalT-V, D-PDMP (20 uM), followed by the measurement of binding and internalization of [^89Zr] GalT-V antibody. […] GalT-V antibody (n=3, p**=0.0079).
Cells were incubated in the presence of excess unlabeled (cold, 50 ug/mL) GalT-V antibody as well as [^89Zr] GalT-V Ab. […] (n=3, p****=<0.0001). Results are shown in FIG. 24 which depicts specificity of binding and internalization of [^89Zr] GalT-V antibody in human colorectal cancer cells (HCT-116).

HCT-116 cells [2] = assay: Effect of D-PDMP on cell proliferation (3H-thymidine incorporation); assay type: cell-based, human
Protocol: HCT-116 cells were seeded (10^4/well) in 96-well sterile plastic plates, and grown for 24 h in complete medium, with 10% fetal calf serum. The media was then replaced with 2% serum-containing media (100 μL) plus ^3H-thymidine ([…]), with and without D-PDMP. After another 24 h incubation, incorporation of ^3H-thymidine into DNA was measured by scintillation spectrometry.

human endothelial cells = details: cited from earlier work
HCT-116 cells [3] = assay: LC-MS sphingolipid levels in HCT-116 cells; assay type: cell-based, human; details: D-PDMP 10 μM, 24 h, vs control
Protocol: HCT-116 cells were seeded ([…]) onto sterilized (100-mm^2) plastic Petri dishes in 10 mL of medium for 24 h. Media was then changed to 2% serum-containing media, with and without D-PDMP (10 μM). After 24 h, media was removed, and total lipids were extracted, using hexane-isopropanol (3:2, by volume) in the presence of sphingolipid internal standards, and subject to MS. […] Data represent averages±SEm, N=3 biological replicates for control and 10 μM D-PDMP in (FIGS. 4A-4H), and the unpaired t-tested was used for statistical analysis.*P≤0.05,**P≤0.01]\
Sphingolipid levels in human CRC tissue and in human cultured CRC cells (HCT-116) were measured by LC-MS, as described previously (23). Visibly normal and CRC tissues (50 mg) were homogenized in chloroform-methanol (2:1), in the presence of sphingolipid internal standards. […] HCT-116 cells were grown in 100 mm^2 sterile, plastic Petri dishes. Lipid extracts were subject to LC-MS, as described (24, 25).

Question: For CCCCCCCCCC(=O)N[C@H](CN1CCOCC1)[C@H](O)c1ccccc1 [D-PDMP, D-threo-1-phenyl-2-decanoylamino-3-morpholino-1-propanol], which UGCG immunofluorescence (UGCG) is on record?
Answer: The UGCG immunofluorescence was “No difference”.

Question: And the GalT-V mass (renal cancer)?
Answer: Its GalT-V mass is “markedly reduced”.

Question: And the tumor volume (renal cancer)?
Answer: The tumor volume was “markedly reduced tumor volume”.

Question: What about the GalT-V fluorescence (β-1,4-GalT-V) of the same compound?
Answer: The GalT-V fluorescence was “reduced GalT-V fluorescence”.

Question: And the “effect on binding and internalization of [89Zr] GalT-V antibody” value [1]?
Answer: Its value is “reduced the binding and internalization”.

Question: What about the “proliferation of HCT-116 cells” value (HCT-116 cells [2]; 24 and 96 h, compared to control cells) of the same compound?
Answer: The value was “dose- and time-dependent (FIGS. 3A, 3B) decrease in proliferation”.

Question: And the “maximal effective dose (decrease in proliferation)” value (HCT-116 cells [2]; HCT-116, 24 and 96 h)?
Answer: Its value is 20 µM.

Question: And the angiogenesis (human endothelial cells)?
Answer: Its angiogenesis is “reduced angiogenesis”.

Question: And the “level of Cer” value (HCT-116 cells [3])?
Answer: Its value is “reduced levels”.

Question: And the “level of DHCer” value (HCT-116 cells [3])?
Answer: The value was “reduced levels”.

Question: And the “level of DHLacCer” value (HCT-116 cells [3])?
Answer: The value was “reduced levels”.

Question: What about the level of dihexosylceramide (HCT-116 cells [3]) of the same compound?
Answer: Its level of dihexosylceramide is “reduced levels”.

Question: And the “level of dihydroGalCer/dihydroGlcCer” value (HCT-116 cells [3])?
Answer: The value was “reduced levels”.

Question: What about the level of monohexosylceramides (HCT-116 cells [3]) of the same compound?
Answer: Its level of monohexosylceramides is “reduced levels”.

From patent US20240360247A1, “COMPOSITIONS AND METHODS FOR TREATMENT OF CANCER” (Johns Hopkins University, priority 2021, published 2024)
